Test results: ChEMBL document CHEMBL5104095, “Proteolysis targeting chimera (PROTAC) in drug discovery paradigm: Recent progress and future challenges” (Eur J Med Chem, 2021)

Key:
[1] = target: T1, Protein cereblon/Tyrosine-protein kinase BTK (Homo sapiens, UniProt Q06187+Q96SW2); test: PROTAC activity at CRBN/BTK in human MINO cells assessed as reduction in BTK level incubated for 24 hrs by Western blot analysis; format: cell-based
Target sequence in this assay (Q06187 whole entry): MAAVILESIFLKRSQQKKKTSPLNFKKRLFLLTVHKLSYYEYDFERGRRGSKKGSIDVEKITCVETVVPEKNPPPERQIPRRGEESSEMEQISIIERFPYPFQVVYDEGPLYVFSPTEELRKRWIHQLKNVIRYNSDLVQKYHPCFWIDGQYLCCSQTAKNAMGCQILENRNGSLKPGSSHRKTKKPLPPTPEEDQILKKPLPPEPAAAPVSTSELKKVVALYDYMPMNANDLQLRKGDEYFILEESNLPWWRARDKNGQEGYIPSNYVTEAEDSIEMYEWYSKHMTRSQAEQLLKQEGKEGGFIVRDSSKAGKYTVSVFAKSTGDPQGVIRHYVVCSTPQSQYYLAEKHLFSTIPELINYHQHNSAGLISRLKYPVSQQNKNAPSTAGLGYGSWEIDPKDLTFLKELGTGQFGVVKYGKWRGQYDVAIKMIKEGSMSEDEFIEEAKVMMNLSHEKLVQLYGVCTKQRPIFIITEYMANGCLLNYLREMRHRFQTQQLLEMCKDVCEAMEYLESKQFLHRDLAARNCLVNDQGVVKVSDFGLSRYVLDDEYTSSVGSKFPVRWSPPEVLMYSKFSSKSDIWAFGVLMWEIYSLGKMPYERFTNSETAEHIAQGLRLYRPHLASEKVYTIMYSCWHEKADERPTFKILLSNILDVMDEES
Target sequence in this assay (Q96SW2 whole entry): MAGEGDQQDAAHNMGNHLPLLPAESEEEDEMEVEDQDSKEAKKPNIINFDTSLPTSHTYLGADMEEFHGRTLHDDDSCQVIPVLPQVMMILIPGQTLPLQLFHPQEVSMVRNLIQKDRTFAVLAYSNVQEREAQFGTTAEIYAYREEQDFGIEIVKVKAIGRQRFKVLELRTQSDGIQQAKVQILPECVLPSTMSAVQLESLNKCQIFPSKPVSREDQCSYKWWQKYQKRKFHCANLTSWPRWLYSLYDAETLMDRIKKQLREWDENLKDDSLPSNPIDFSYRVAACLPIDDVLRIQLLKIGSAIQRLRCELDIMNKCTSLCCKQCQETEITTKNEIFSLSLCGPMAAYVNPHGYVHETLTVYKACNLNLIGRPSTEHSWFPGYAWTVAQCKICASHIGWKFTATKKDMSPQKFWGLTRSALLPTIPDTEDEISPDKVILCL

[2] = target: T1, Protein cereblon/Tyrosine-protein kinase BTK; test: PROTAC activity at CRBN/BTK in human MINO cells assessed as reduction in BTK level incubated for 24 hrs by Western blot analysis relative to control; format: cell-based
Target sequence in this assay (Q06187 2-659 limits assumed): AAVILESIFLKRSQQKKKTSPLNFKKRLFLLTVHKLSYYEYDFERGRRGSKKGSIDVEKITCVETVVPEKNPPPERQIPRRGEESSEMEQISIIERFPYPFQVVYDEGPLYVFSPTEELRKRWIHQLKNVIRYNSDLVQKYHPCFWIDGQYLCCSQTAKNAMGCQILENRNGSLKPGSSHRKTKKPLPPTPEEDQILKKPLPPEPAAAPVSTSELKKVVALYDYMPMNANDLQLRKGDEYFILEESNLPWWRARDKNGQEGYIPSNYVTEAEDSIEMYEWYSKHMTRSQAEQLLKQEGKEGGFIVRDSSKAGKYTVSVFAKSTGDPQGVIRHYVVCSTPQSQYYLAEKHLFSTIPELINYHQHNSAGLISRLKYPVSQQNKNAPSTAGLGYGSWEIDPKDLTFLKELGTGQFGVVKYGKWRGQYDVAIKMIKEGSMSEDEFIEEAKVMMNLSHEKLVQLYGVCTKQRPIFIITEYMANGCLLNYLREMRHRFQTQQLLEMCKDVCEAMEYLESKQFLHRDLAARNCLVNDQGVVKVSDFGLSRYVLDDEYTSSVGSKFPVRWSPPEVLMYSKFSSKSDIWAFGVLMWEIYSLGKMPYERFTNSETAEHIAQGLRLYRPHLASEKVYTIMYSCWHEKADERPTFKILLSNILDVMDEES
Target sequence in this assay (Q96SW2 whole entry partner): as the sequence (Q96SW2 whole entry) above

[3] = target: T2, von Hippel-Lindau disease tumor suppressor/Mitogen-activated protein kinase 14 (Homo sapiens, UniProt P40337+Q16539); test: PROTAC activity at VHL/p38alpha in human MDA-MB-231 cells assessed as induction of p38alpha degradation incubated for 24 hrs by Western blot analysis; format: cell-based
T2 sequence (Q16539 whole entry): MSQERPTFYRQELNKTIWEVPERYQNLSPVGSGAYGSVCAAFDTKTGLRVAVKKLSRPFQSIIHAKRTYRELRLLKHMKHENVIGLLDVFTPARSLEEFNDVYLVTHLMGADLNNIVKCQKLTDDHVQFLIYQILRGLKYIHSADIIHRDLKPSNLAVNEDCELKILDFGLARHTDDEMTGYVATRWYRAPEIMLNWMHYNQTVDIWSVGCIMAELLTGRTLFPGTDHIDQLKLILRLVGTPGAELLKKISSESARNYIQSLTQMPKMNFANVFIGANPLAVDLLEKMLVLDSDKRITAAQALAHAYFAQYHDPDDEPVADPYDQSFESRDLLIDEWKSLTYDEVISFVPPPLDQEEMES
T2 sequence (P40337 whole entry): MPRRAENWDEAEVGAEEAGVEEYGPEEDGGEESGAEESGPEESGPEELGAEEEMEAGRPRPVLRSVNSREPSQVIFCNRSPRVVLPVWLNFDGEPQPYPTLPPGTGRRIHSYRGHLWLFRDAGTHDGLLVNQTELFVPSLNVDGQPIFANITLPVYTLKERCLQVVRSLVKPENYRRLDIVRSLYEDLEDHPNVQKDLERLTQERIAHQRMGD

[4] = target: T2, von Hippel-Lindau disease tumor suppressor/Mitogen-activated protein kinase 14; test: PROTAC activity at VHL/p38alpha (unknown origin) assessed as dissociation constant by competitive binding assay
[5] = target: von Hippel-Lindau disease tumor suppressor/Mitogen-activated protein kinase 14 (Homo sapiens) (UniProt Q16539+P40337); test: PROTAC activity at VHL/p38alpha in human MDA-MB-231 cells assessed as induction of p38alpha degradation incubated for 24 hrs by Western blot analysis relative to control; format: cell-based
Protein cereblon-NS3 = Protein cereblon-NS3 (Hepacivirus hominis, UniProt A3EZJ3+Q96SW2); test: PROTAC activity at CRBN/NS3 of HCV assessed as induction of NS3-eGFP-2A-mCherry degradation incubated for 4 hrs by flow cytometry
Chain of Protein cereblon-NS3 (A3EZJ3 whole entry): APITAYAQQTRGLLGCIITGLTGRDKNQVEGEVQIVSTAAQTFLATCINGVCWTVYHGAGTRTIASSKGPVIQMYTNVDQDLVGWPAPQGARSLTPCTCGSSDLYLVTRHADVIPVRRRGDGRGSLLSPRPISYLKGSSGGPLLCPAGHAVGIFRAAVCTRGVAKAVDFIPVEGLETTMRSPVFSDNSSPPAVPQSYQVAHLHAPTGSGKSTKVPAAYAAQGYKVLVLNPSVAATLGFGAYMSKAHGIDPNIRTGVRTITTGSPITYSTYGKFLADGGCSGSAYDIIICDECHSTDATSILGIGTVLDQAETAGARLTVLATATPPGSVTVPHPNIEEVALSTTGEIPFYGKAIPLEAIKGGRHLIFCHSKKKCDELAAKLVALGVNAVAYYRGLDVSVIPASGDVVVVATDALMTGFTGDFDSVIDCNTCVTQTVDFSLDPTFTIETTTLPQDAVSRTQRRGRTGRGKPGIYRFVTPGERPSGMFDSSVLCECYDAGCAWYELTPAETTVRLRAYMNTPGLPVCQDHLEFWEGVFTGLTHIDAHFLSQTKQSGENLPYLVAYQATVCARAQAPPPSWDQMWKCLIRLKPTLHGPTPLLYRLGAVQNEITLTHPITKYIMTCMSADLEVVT
Chain of Protein cereblon-NS3 (Q96SW2 whole entry): as the sequence (Q96SW2 whole entry) above

[6] = target: Protein cereblon/Adenosine receptor A1 (Homo sapiens) (UniProt P30542+Q96SW2); test: PROTAC activity at CRBN/A1AR in human HEK293 cells assessed as induction of A1AR degradation at 10 micromol/L incubated for 12 hrs by Western blot analysis relative to control; format: cell-based; conditions: dose 10.0 µmol/L
[7] = target: Alpha-1A adrenergic receptor (Homo sapiens, UniProt P35348); test: PROTAC activity at CRBN/A1AR in human HEK293 cells assessed as induction of A1AR degradation incubated for 12 hrs by Western blot analysis; format: cell-based
PC-3 = test: Antiproliferative activity against human PC-3 cells assessed as inhibition of cell proliferation incubated for 48 hrs by CCK8 assay; format: functional, cell-based; conditions: PC-3, 48 h
[8] = target: von Hippel-Lindau disease tumor suppressor/Barrier-to-autointegration factor (Homo sapiens, UniProt O75531+P40337); test: PROTAC activity at VHL/BAF in human MV4-11 cells assessed as induction of BAF degradation incubated for 18 hrs by Western blot analysis; format: cell-based
[9] = target: von Hippel-Lindau disease tumor suppressor/Barrier-to-autointegration factor (Homo sapiens) (UniProt P40337+O75531); test: PROTAC activity at VHL/BAF in human MV4-11 cells assessed as induction of BAF degradation incubated for 18 hrs by Western blot analysis relative to control; format: cell-based
[10] = target: von Hippel-Lindau disease tumor suppressor/Focal adhesion kinase 1 (Homo sapiens, UniProt P40337+Q05397); test: PROTAC activity at VHL/FAK in human PC-3 cells assessed as induction of FAK degradation incubated for 24 hrs by immunoblot analysis; format: cell-based
[11] = target: von Hippel-Lindau disease tumor suppressor/Focal adhesion kinase 1 (Homo sapiens) (UniProt Q05397+P40337); test: PROTAC activity at VHL/FAK in human PC-3 cells assessed as induction of FAK degradation incubated for 24 hrs by immunoblot analysis relative to control; format: cell-based
[12] = target: T3, Protein cereblon/Retinal rod rhodopsin-sensitive cGMP 3',5'-cyclic phosphodiesterase subunit delta (Homo sapiens, UniProt O43924+Q96SW2); test: PROTAC activity at CRBN/PDEdelta in human PancTu-I assessed as induction of PDEdelta degradation incubated for 24 hrs by immunoblot analysis; format: cell-based
[13] = target: T3, Protein cereblon/Retinal rod rhodopsin-sensitive cGMP 3',5'-cyclic phosphodiesterase subunit delta; test: PROTAC activity at CRBN/PDEdelta in human PancTu-I assessed as induction of PDEdelta degradation incubated for 24 hrs by immunoblot analysis relative to control; format: cell-based
[14] = target: BRD4/E3 ubiquitin-protein ligase Mdm2 (Homo sapiens) (UniProt Q00987+O60885); test: PROTAC activity at MDM2/BRD4 in human HCT-116 cells assessed as induction of BRD4 degradation incubated for 24 hrs by immunoblot analysis relative to control; format: cell-based
[15] = target: BRD4/E3 ubiquitin-protein ligase Mdm2 (Homo sapiens, UniProt O60885+Q00987); test: PROTAC activity at MDM2/BRD4 in human HCT-116 cells assessed as induction of BRD4 degradation incubated for 24 hrs by immunoblot analysis; format: cell-based
[16] = target: von Hippel-Lindau disease tumor suppressor/Cyclin-dependent kinase 6 (Homo sapiens) (UniProt Q00534+P40337); test: PROTAC activity at VHL/CDK6 in human MM1.S cells assessed as induction of CDK6 degradation at 0.1 to 1 uM incubated for 16 hrs by Western blot analysis relative to control; format: cell-based; conditions: dose 0.1-1 µM
[17] = target: von Hippel-Lindau disease tumor suppressor/Cyclin-dependent kinase 4 (Homo sapiens, UniProt P11802+P40337); test: PROTAC activity at VHL/CDK4 in human MM1.S cells assessed as induction of […] degradation incubated for 16 hrs by Western blot analysis; format: cell-based
[18] = target: von Hippel-Lindau disease tumor suppressor/Cyclin-dependent kinase 6 (Homo sapiens, UniProt P40337+Q00534); test: PROTAC activity at VHL/CDK6 in human MM1.S cells assessed as induction of CDK6 degradation incubated for 16 hrs by Western blot analysis; format: cell-based
[19] = target: T4, Protein cereblon/Tyrosine-protein kinase BTK (Homo sapiens, UniProt Q06187+Q96SW2, C481S); test: PROTAC activity at CRBN/BTK C481S mutant transfected in human HeLa cells assessed as induction of BTK C481S degradation incubated for 4 days by immunoblot analysis; format: cell-based
T4 sequence (Q06187 2-659 C481S limits assumed, stated change not applied): as the sequence (Q06187 2-659 limits assumed) above, with C480S counted along it
T4 sequence (Q96SW2 whole entry, stated change not applied): as the sequence (Q96SW2 whole entry) above

[20] = target: T5, Protein cereblon/Indoleamine 2,3-dioxygenase 1 (Homo sapiens, UniProt P14902+Q96SW2); test: PROTAC activity at CRBN/IDO1 in human HeLa cells assessed as induction of IDO1 degradation incubated for 24 hrs by immunoblot analysis relative to control; format: cell-based
[21] = target: T5, Protein cereblon/Indoleamine 2,3-dioxygenase 1; test: PROTAC activity at CRBN/IDO1 in human HeLa cells assessed as induction of IDO1 degradation incubated for 24 hrs by immunoblot analysis; format: cell-based
[22] = PROTAC activity at VHL/PRC2 in human HeLa cells assessed as induction of PRC2 degradation incubated for 24 hrs by Western blot analysis; format: cell-based
HeLa = test: PROTAC activity at VHL/PRC2 in human HeLa cells assessed as induction of PRC2 degradation incubated for 24 hrs by Western blot analysis relative to control; format: cell-based
[23] = target: Protein cereblon/Peptidyl-prolyl cis-trans isomerase FKBP1A (Homo sapiens, UniProt P62942+Q96SW2); test: PROTAC activity at CRBN/FKBP12 in human Jurkat cells assessed as induction of FKBP12 degradation incubated for 12 hrs by Western blot analysis; format: cell-based
[24] = target: T6, von Hippel-Lindau disease tumor suppressor/Tyrosine-protein kinase ABL1/Breakpoint cluster region protein (Homo sapiens, UniProt P00519+P11274+P40337); test: PROTAC activity at VHL/BCR-Abl (unknown origin) assessed as induction of BCR-Abl degradation by cell based assay relative to control
[25] = target: T6, von Hippel-Lindau disease tumor suppressor/Tyrosine-protein kinase ABL1/Breakpoint cluster region protein; test: PROTAC activity at VHL/BCR-Abl (unknown origin) assessed as induction of BCR-Abl degradation by cell based assay
[26] = target: IAP-Tyrosine-protein kinase BTK (Homo sapiens, UniProt P98170+Q06187+Q13489+Q13490); test: PROTAC activity at IAP/BTK in human THP-1 cells assessed as reduction in BTK level incubated for 16 hrs by immunoblot analysis; format: cell-based
[27] = target: T4, Protein cereblon/Tyrosine-protein kinase BTK; test: PROTAC activity at CRBN/BTK C481S mutant transfected in human HBL1 cells assessed as induction of BTK C481S degradation incubated for 36 hrs by Western blot analysis; format: cell-based

Nc1ncnc2c1c(-c1ccc(Oc3ccccc3)cc1)nn2[C@H]1CCCN(C(=O)CCCCCCOCCOCCOCCOCCOc2cccc3c2C(=O)N(C2CCC(=O)NC2=O)C3=O)C1 (some centres not stated)
EC50 [1]: 2.2 nM
Emax [2]: 97%

COc1cc2c(Oc3ccc(NC(=O)C4(C(=O)Nc5ccc(F)cc5)CC4)cc3F)cccc2cc1OCCCOCCCOCCC(=O)N[C@H](C(=O)N1C[C@H](O)C[C@H]1C(=O)NCc1ccc(-c2scnc2C)cc1)C(C)(C)C
EC50 [3]: 210 nM
Kd [4]: 11000 nM
Emax [5]: 91%

CC(C)(/C=C(\C#N)C(=O)N1CCC[C@H](n2nc(-c3ccc(Oc4ccccc4)cc3)c3c(N)ncnc32)C1)CCCOCCOCCOCCOCCOc1cccc2c1C(=O)N(C1CCC(=O)NC1=O)C2=O (some centres not stated)
EC50 [1]: 10 nM
Emax [2]: 90%

CCC[C@H](NC(=O)[C@@H]1[C@H]2CCC[C@H]2CN1C(=O)[C@@H](NC(=O)[C@@H](NC(=O)c1cnc(C(=O)NCCOCCOCCNc2cccc3c2C(=O)N(C2CCC(=O)NC2=O)C3=O)cn1)C1CCCCC1)C(C)(C)C)C(=O)C(=O)NC1CC1 (some centres not stated)
EC50 (Protein cereblon-NS3): 489 nM

CCC[C@H](NC(=O)[C@@H]1[C@H]2CCC[C@H]2CN1C(=O)[C@@H](NC(=O)[C@@H](NC(=O)c1cnc(C(=O)NCCOCCOCCOc2cc3c4c(cccc4c2)C(=O)N(C2CCC(=O)NC2=O)C3=O)cn1)C1CCCCC1)C(C)(C)C)C(=O)C(=O)NC1CC1 (some centres not stated)
EC50 (Protein cereblon-NS3): 50 nM

CCC[C@H](NC(=O)[C@@H]1[C@H]2CCC[C@H]2CN1C(=O)[C@@H](NC(=O)[C@@H](NC(=O)c1cnc(C(=O)NCCCCCCNc2cccc3c2CN(C2CCC(=O)NC2=O)C3=O)cn1)C1CCCCC1)C(C)(C)C)C(=O)C(=O)NC1CC1 (some centres not stated)
EC50 (Protein cereblon-NS3): 669 nM

COc1cc2nc(N3CCN(C(=O)c4cn(CCOCCOCCOCC(=O)Nc5cccc6c5C(=O)N(C5CCC(=O)NC5=O)C6=O)nn4)CC3)nc(N)c2cc1OC (configuration not stated)
Emax [6]: 94%
EC50 [7]: 2860 nM
IC50 (PC-3): 6120 nM

COc1cc2nc(N3CCN(C(=O)c4ccco4)CC3)nc(N)c2cc1OC [PRAZOSIN]
IC50 (PC-3): 11700 nM

Cc1ncsc1-c1ccc(CNC(=O)[C@@H]2C[C@@H](O)CN2C(=O)[C@@H](NC(=O)C2(F)CC2)C(C)(C)C)c(OCCOc2ccc(CN3CCN(c4cc(-c5ccccc5O)nnc4N)CC3)cc2)c1
EC50 [8]: < 32 nM
Emax [9]: > 65%

Cc1ncsc1-c1ccc(CNC(=O)[C@@H]2C[C@@H](O)CN2C(=O)[C@@H](NC(=O)CCOCCOc2ccc(Nc3ncc(C(F)(F)F)c(NCc4cccc(N(C)S(C)(=O)=O)c4)n3)cc2)C(C)(C)C)cc1
EC50 [10]: 3 nM
Emax [11]: 99%

O=C1CCC(N2C(=O)c3cccc(NCCOCCOCCOCCOCCNC(=O)c4ccc(CN(CC5CCNCC5)S(=O)(=O)c5ccc(S(=O)(=O)N(Cc6ccc(Cl)cc6)C6CCCC6)cc5)cc4)c3C2=O)C(=O)N1 (configuration not stated)
EC50 [12]: 48 nM
Emax [13]: 85%

COc1cc(C(=O)NCCOCCOCCOCCNC(=O)C[C@@H]2N=C(c3ccc(Cl)cc3)c3c(sc(C)c3C)-n3c(C)nnc32)ccc1NC(=O)[C@@H]1N[C@@H](CC(C)(C)C)[C@](C#N)(c2ccc(Cl)cc2F)[C@H]1c1cccc(Cl)c1F
Emax [14]: 98%
EC50 [15]: 32 nM

CC(=O)c1c(C)c2cnc(Nc3ccc(N4CCN(CCOCCOCCOc5cc(-c6scnc6C)ccc5CNC(=O)[C@H]5C[C@H](O)CN5C(=O)[C@@H](NC(=O)C5(F)CC5)C(C)(C)C)CC4)cn3)nc2n(C2CCCC2)c1=O
Emax [16]: > 95%
EC50 [17]: 20 nM
EC50 [18]: 5.1 nM

Nc1ncnc2c1c(-c1ccc(Oc3ccccc3)cc1)nn2[C@@H]1CCCN(C(=O)c2cn(CCOCCOCCOCCNc3cccc4c3C(=O)N(C3CCC(=O)NC3=O)C4=O)nn2)C1 (some centres not stated)
EC50 [19]: 30 nM

O=C1CCC(N2C(=O)c3cccc(NCCOCCOCCOCCOCCOCCOCCOCCNCCNc4nonc4/C(=N/O)Nc4ccc(F)c(Br)c4)c3C2=O)C(=O)N1 (configuration not stated)
Emax [20]: 93%
EC50 [21]: 2840 nM

Nc1ncnc2c1c(-c1ccc(Oc3ccccc3)cc1)nn2[C@H]1CCCN(C(=O)/C=C/CCCCOCCOCCOCCOCCOc2cccc3c2C(=O)N(C2CCC(=O)NC2=O)C3=O)C1 (some centres not stated)
EC50 [1]: 10 nM
Emax [2]: 90%

Cc1ncsc1-c1ccc(CNC(=O)[C@@H]2C[C@@H](O)CN2C(=O)[C@@H](NC(=O)CCCNC(=O)c2ccc(-c3cnc(NCc4ccco4)n4cnnc34)cc2)C(C)(C)C)cc1
EC50 [22]: < 700 nM
Emax (HeLa): > 80%

CO[C@H]1C[C@@H]2CC[C@@H](C)[C@@](O)(O2)C(=O)C(=O)N2CCCC[C@H]2C(=O)O[C@H]([C@@H](C)C[C@@H]2CC[C@@H](OCCOCc3cn(CCOCCOCCNc4cccc5c4C(=O)N(C4CCC(=O)NC4=O)C5=O)nn3)[C@H](OC)C2)CC(=O)[C@H](C)/C=C(\C)[C@@H](O)[C@H](OC)C(=O)[C@H](C)C[C@H](C)/C=C/C=C/C=C/1C (some centres not stated)
EC50 [23]: < 0.3 nM

Cc1ncsc1-c1ccc(CNC(=O)[C@@H]2C[C@@H](O)CN2C(=O)[C@@H](NC(=O)COCCOc2ccc(-c3cc(Nc4ccc(OC(F)(F)F)cc4)ncn3)cc2)C(C)(C)C)cc1
Emax [24]: > 95%
EC50 [25]: 340 nM

CN[C@@H](C)C(=O)N[C@H](C(=O)N1C[C@@H](NC(=O)COCCOCCOCCOCCN2CCN(CCCC(=O)N3CCC[C@@H](n4nc(-c5ccc(Oc6ccccc6)cc5)c5c(N)ncnc54)C3)CC2)C[C@H]1C(=O)N[C@@H]1CCCc2ccccc21)C1CCCCC1
EC50 [26]: 200 nM

Nc1ncnc2c1c(-c1ccc(Oc3ccccc3)cc1)nn2[C@@H]1CCCN(C(=O)c2cn(CCOCCOCCOCCCc3cccc4c3CN(C3CCC(=O)NC3=O)C4=O)nn2)C1 (some centres not stated)
EC50 [27]: 29 nM
